Experiment [1] relates to Enterobacter cloacae ATCC 13047. Briefly: microbe, parasite or virus in culture. The experiment is classed as cell-based. The note with it: ATCC13047.
The test system of experiment [2] is Haemophilus influenzae ATCC 49247. Briefly: microbe, parasite or virus in culture. The note with it: ATCC49247. Type of experiment: cell-based.
Experiment [3] deals with Moraxella catarrhalis ATCC 25238. Briefly: microbe, parasite or virus in culture. Type of experiment: cell-based. The note with it: ATCC25238.
Experiment [4] deals with Thermus thermophilus RNAP (Thermus thermophilus, UniProt Q8RQE8+Q8RQE9). Briefly: biochemical.

Values after ≈ are worked out from the molar mass of the structure shown. Numbered stars: 1 amine (or outer) side, 2 acyl side, 3 side chain; on linkers, the order of the positions; unused ones are H or OH. Bridge positions count the residues as written; N and C are the ends. Square brackets hold non-standard residues; d marks the D form. Peptide text beside a SMILES is read from it. * marks the point of attachment. X4 = CC(Oc1ccc(C(N[*:1])C(=O)[*:2])cc1)C(O)(C=CC(=O)[*:3])CCl; NMeF = CN[CH](Cc1ccccc1)C(=O)O; X3 = CC(C)C(O)C(C)C(=O)* A value given as a limit tells only on which side of the number the result lay.

Chain of Thermus thermophilus RNAP (Q8RQE8 whole entry): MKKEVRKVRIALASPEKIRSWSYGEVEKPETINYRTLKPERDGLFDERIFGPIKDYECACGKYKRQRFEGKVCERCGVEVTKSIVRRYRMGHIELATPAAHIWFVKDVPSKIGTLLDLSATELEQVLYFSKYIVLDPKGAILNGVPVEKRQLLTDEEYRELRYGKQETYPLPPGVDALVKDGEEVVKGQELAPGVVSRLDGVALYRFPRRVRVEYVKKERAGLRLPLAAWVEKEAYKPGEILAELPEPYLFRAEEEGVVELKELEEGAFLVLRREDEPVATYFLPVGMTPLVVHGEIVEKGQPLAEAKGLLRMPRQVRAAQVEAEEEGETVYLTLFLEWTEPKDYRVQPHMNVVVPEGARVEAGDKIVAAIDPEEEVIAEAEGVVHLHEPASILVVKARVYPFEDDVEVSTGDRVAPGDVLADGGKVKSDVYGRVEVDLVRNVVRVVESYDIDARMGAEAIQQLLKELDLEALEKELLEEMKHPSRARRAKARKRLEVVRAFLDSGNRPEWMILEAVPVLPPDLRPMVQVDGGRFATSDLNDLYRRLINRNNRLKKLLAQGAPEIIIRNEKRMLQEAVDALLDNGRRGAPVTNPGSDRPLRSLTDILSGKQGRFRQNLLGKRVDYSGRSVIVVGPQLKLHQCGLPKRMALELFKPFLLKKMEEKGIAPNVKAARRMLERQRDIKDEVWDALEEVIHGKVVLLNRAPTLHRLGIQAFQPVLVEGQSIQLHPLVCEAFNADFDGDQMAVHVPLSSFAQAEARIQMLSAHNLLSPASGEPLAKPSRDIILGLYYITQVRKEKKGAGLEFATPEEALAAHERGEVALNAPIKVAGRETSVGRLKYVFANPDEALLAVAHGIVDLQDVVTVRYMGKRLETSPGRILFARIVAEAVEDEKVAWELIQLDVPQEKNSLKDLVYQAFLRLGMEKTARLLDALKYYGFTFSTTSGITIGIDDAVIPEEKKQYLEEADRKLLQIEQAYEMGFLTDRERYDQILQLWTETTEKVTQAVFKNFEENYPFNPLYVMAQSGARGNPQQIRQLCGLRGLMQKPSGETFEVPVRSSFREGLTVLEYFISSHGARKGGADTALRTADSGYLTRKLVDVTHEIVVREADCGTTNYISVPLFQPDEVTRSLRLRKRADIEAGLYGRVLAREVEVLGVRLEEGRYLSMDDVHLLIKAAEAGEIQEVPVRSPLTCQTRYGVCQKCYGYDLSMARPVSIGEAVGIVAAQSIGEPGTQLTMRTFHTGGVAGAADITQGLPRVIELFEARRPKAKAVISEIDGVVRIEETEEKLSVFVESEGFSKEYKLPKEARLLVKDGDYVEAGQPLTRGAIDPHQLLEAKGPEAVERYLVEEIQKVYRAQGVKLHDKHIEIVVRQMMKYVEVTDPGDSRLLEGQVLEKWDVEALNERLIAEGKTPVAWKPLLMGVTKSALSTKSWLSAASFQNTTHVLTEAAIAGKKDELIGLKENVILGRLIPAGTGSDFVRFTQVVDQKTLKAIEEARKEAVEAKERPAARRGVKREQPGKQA
Chain of Thermus thermophilus RNAP (Q8RQE9 whole entry): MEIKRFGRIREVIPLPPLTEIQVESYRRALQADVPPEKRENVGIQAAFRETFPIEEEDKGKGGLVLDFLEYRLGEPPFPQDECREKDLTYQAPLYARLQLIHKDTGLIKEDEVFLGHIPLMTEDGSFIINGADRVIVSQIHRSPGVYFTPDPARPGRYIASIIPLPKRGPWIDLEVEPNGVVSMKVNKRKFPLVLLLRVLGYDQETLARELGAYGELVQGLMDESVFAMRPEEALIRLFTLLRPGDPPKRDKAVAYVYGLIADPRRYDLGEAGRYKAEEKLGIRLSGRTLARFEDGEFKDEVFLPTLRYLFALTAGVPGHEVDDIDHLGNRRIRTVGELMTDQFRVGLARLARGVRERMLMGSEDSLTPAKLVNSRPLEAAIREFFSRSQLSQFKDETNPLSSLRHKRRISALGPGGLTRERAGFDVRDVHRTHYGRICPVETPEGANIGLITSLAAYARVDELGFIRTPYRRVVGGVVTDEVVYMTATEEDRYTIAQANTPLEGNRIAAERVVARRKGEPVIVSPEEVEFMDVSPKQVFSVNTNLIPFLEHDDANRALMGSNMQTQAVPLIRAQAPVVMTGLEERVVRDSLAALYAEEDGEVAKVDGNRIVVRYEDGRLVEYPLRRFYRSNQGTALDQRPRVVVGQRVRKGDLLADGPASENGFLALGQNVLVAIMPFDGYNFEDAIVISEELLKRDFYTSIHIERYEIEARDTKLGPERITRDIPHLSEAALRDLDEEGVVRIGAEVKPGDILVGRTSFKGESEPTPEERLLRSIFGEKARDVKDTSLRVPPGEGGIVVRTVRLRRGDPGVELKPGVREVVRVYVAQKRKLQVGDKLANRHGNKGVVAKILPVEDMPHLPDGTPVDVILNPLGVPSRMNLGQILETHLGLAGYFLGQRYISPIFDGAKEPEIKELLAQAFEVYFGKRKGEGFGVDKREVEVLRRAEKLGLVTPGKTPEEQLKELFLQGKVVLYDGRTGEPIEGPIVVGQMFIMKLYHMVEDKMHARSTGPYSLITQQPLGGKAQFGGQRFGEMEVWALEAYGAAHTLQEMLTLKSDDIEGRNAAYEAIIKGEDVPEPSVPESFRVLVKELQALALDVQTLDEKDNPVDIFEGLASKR

As for `CCC(C)C1NC(=O)C(NC(=O)C(C)C(O)C(C)C)C(C)OC(=O)C2COC(=O)CNC(=O)C=CC(O)(CCl)C(C)Oc3ccc(cc3)C(NC1=O)C(=O)N(C)C(Cc1ccccc1)C(=O)NC(C(C)O)C(=O)N2` (stereo not shown) [SalB, salinamide B] (X3-TI[X4][NMeF]TS; ester 1-C; linker 3-6 via G; configuration not given here), the MIC in experiment [1] is 12.5 µg/mL (≈ 11.8 µM); in experiment [2] it was 12.5 µg/mL (≈ 11.8 µM); in experiment [3], above 50 µg/mL. The molecule also returned an IC50 in experiment [4] above 100 µM.

Usually IC50 stands for the midpoint of a concentration-inhibition curve. Read a high IC50 as a need for much substance.

The record behind these values is publication PMC4029172 (eLife, 2014).
